# Reference: US10815212B2, “Cytotoxin compounds and methods of isolation” (priority 2004, dated 2020)
# Columns and labels:
# [1] = Field-based feeding-deterrent assays
# LOX IMVI = test: cells; details: Homo sapiens, read-out: LC50
# M14 = test: cells; details: Homo sapiens, M14, read-out: LC50
# [2] = system: National Cancer Institute (NCI) 60 cell line panel
# SK-MEL-5 = test: cells; details: Homo sapiens, SK-MEL-5, read-out: LC50
# [3] = system: National Cancer Institute (NCI) 60 cell line panel; test: cells; details: read-out: LC50
# HCC-2998 = test: cells; details: Homo sapiens, HCC 2998, read-out: LC50
# RXF 393 = test: cells; details: Homo sapiens, RXF 393, read-out: LC50
smiles,measurement,setting,value
C=C(C)C/C(C)=C\C(=O)N/C=C/C(C)=C/C(C)C1C/C(C)=C/C=C/CCC(OC(N)=O)C(O)/C=C/C(O)CCC/C=C/C(=O)O1 (stereo not shown) [Palmerolide D],bioactivity in field-based feeding-deterrent assays,[1],displayed bioactivity
CC(C)=CC(=O)N/C=C/C(C)=C/C(C)C1C/C(C)=C/C=C/CCC(OC(N)=O)C(O)/C=C/C(O)CCC/C=C/C(=O)O1 (stereo not shown) [Palmerolide A],CC50,LOX IMVI,9.8 µM
same,CC50,M14,0.076 µM
same,selectivity index among tested cell lines,[2]; most sensitive cells relative to other cell lines tested,10^3
same,cytotoxicity (in words),UACC-62,displays cytotoxicity
same,CC50,SK-MEL-5,6.8 µM
same,CC50,[3],> 10 µM
same,bioactivity in field-based feeding-deterrent assays,[1],displayed bioactivity
same,CC50,HCC-2998,6.5 µM
same,CC50,RXF 393,6.5 µM
CC(C)=CC(=O)N/C=C/C(C)=C/C(C)C1C/C(C)=C/C=C/CCCC(OC(N)=O)C(O)C(O)/C=C/CC/C=C/C(=O)O1 (stereo not shown) [Palmerolide C],bioactivity in field-based feeding-deterrent assays,[1],displayed bioactivity
C/C(C=O)=C\C(C)C1C/C(C)=C/C=C/CCC(OC(N)=O)C(O)/C=C/C(O)CCC/C=C/C(=O)O1 (stereo not shown) [Palmerolide E],activity/potency relative to palmerolide A (in words),[2]; NCI 60 cell line bioassay,reduced activity
same,bioactivity in field-based feeding-deterrent assays,[1],displayed bioactivity
